According to patent US8945540B2, “Compositions for enhancing the antibacterial activity of myeloperoxidase and methods of use thereof” (Exoxemis, Inc., priority 2008, dated 2015):
Values after ≈ are worked out from the molar mass of the structure shown. Values belong to the compound of their own block, whether it stands above or below them.

Assays:
[1] = test system: E. faecalis; assay: MIC, modified CLSI broth microdilution; type: cell-based, Enterococcus faecalis
Description: (§1) All clinical isolates were obtained from the culture collection of Eurofins Medinet Anti-Infective Services (Herndon, Va.), and represent diverse geographical regions. They were originally derived from clinical specimens and identified using standard microbiological methods (see Table 33 below for details). Escherichia coli ATCC 25922, Staphylococcus aureus ATCC 25923, S. aureus ATCC 29213, Pseudomonas aeruginosa ATCC 27853, and Enterococcus faecalis ATCC 29212 were used as quality control strains for the Enhanced MPO Solution and comparator agents to validate the modified Clinical and Laboratory Standards Institute (CLSI, formally NCCLS) broth microdilution method.
Modifications were made to the standard broth microdilution method to accommodate the rapid in vitro activity of the Enhanced MPO Solution as described below. Each antimicrobial agent and Concentrate solution was diluted in double strength cation-adjusted Mueller-Hinton Broth (CAMHB) and dispensed in mircrodilution trays. All β-hemolytic streptococci were tested in double strength CAMHB supplemented with 5% lysed horse blood. Isolates were prepared by suspending several colonies (four to six) from an overnight culture on Trypticase Soy Agar (TSA) with 5% sheep blood into sterile saline and the density adjusted to a 0.5 McFarland standard (˜10^8 CFU/ml). Standardized bacterial suspensions were further diluted in double strength Diluent solution so that approximately 5×10^5 CFU/ml was mixed with serial drug dilutions. […]
MIC ranges were established for the Enhanced MPO Solution by testing over 20 replicates of one lot of the Enhanced MPO Solution against S. aureus ATCC 29213 and E. coli ATCC 25922. Quality control parameters were then determined for the Enhanced MPO Solution by testing three lots of the Concentrate solution used for preparation of the final Enhanced MPO Solution formulation. […] The effects of modifying the standard broth microdilution test were also assessed with antibiotics with known quality control limits to validate the CLSI broth microdilution method.

[2] = test system: S. epidermidis; assay: MIC, modified CLSI broth microdilution; type: cell-based, Staphylococcus epidermidis
Protocol: (§2) Modifications were made to the standard broth microdilution method to accommodate the rapid in vitro activity of the Enhanced MPO Solution as described below. Each antimicrobial agent and Concentrate solution was diluted in double strength cation-adjusted Mueller-Hinton Broth (CAMHB) and dispensed in mircrodilution trays. All β-hemolytic streptococci were tested in double strength CAMHB supplemented with 5% lysed horse blood. Isolates were prepared by suspending several colonies (four to six) from an overnight culture on Trypticase Soy Agar (TSA) with 5% sheep blood into sterile saline and the density adjusted to a 0.5 McFarland standard (˜10^8 CFU/ml). Standardized bacterial suspensions were further diluted in double strength Diluent solution so that approximately 5×10^5 CFU/ml was mixed with serial drug dilutions. […] The microdilution trays were incubated in ambient air at 35° C. for 18 to 24 h.

[3] = test system: S. aureus; assay: MIC, modified CLSI broth microdilution; type: cell-based, Staphylococcus aureus
Description: as §1
Modifications were made to the standard broth microdilution method to accommodate the rapid in vitro activity of the Enhanced MPO Solution as described below. Each antimicrobial agent and Concentrate solution was diluted in double strength cation-adjusted Mueller-Hinton Broth (CAMHB) and dispensed in mircrodilution trays. All β-hemolytic streptococci were tested in double strength CAMHB supplemented with 5% lysed horse blood. Isolates were prepared by suspending several colonies (four to six) from an overnight culture on Trypticase Soy Agar (TSA) with 5% sheep blood into sterile saline and the density adjusted to a 0.5 McFarland standard (˜10^8 CFU/ml). Standardized bacterial suspensions were further diluted in double strength Diluent solution so that approximately 5×10^5 CFU/ml was mixed with serial drug dilutions. The addition of Diluent solution to the Concentrate solution activates the enzyme system, which in turn exerts its rapid mode of action. The microdilution trays were incubated in ambient air at 35° C. for 18 to 24 h.
MIC ranges were established for the Enhanced MPO Solution by testing over 20 replicates of one lot of the Enhanced MPO Solution against S. aureus ATCC 29213 and E. coli ATCC 25922. Quality control parameters were then determined for the Enhanced MPO Solution by testing three lots of the Concentrate solution used for preparation of the final Enhanced MPO Solution formulation. Testing was performed in duplicate against S. aureus ATCC 29213 and E. coli ATCC 25922. The effects of modifying the standard broth microdilution test were also assessed with antibiotics with known quality control limits to validate the CLSI broth microdilution method.

[4] = test system: S. pyogenes; assay: MIC, modified CLSI broth microdilution (CAMHB with 5% lysed horse blood); type: cell-based; conditions: Streptococcus pyogenes, 33 clinical isolates
Protocol: as §2

[5] = test system: E. faecium; assay: MIC, modified CLSI broth microdilution; type: cell-based; conditions: Enterococcus faecium, 22 clinical isolates
Protocol: as §2

[6] = test system: streptococci groups C, F, and G; assay: MIC, modified CLSI broth microdilution (CAMHB with 5% lysed horse blood); type: cell-based, Streptococcus Group C, Group F, Group G; conditions: for MIC Range: range for all strains tested
Protocol: as §2

[7] = test system: S. agalactiae; assay: as above; type: cell-based; conditions: Streptococcus agalactiae, 34 clinical isolates
Protocol: as §2

[8] = test system: Bacillus subtilis spores; assay: Myeloperoxidase system with beta alanine and L-alanine against spores in the presence of blood; type: cell-based; conditions: 2 hours, MPO 25 μg/mL (9.4 U/mL), GO 8.3 U/mL
Protocol: The effect of a two-way combination of beta alanine and L-alanine, as potential enhancing agents, for MPO microbicidal action against Bacillus subtilis spores in the presence of blood, was determined following the procedure of Example 2. However, in this case each test contained a single low concentration of MPO (25 μg/mL or 9.4 U/mL) and glucose oxidase (8.3 U/mL). […] The effect of both L-alanine and beta alanine alone on the myeloperoxidase antimicrobial activity against Bacillus subtilis spores was tested for comparison.
The nature of the relationship between beta alanine and L-alanine was examined following the synergy determination method described above.

[9] = test system: Staphylococcus aureus; assay: Microbicidal activity of the myeloperoxidase system (p-MPO, glucose oxidase, glucose) with amino acids in the presence of blood, CFU plate counts; synergy determination from these CFU; type: cell-based; conditions: for Average Viability CFU/ml 50 min / Log Reduction 50 min: single amino acid 2.5 mM, MPO 4.7 U/ml, GO 4.2 U/ml, in the presence of blood
In short: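 Microbicidal activity of the MPO–glucose oxidase–glucose system against S. aureus with amino acids was assessed in 3% whole blood. Reactions of 1 mL were run at room temperature or 37° C and stopped with catalase. Surviving CFU were counted on trypticase soy agar. For each pair, Actual CFU was divided by Predicted CFU and multiplied by 100. This value was compared with variability-based thresholds to classify synergism, antagonism or additivity.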

[10] = test system: Staphylococcus aureus; assay: Control: microbicidal activity of the amino acid or analogue alone (no glucose, MPO, glucose oxidase) in the presence of blood; type: cell-based; conditions: amino acid alone 5 mM, MPO 0, GO 0, no glucose, blood, without replication
Description: As a control to determine the microbicidal activity of the amino acids alone, the foregoing procedure was followed without replication, except in the absence of glucose, MPO, and glucose oxidase.

[11] = Enterococcus faecalis, 33 clinical isolates
[12] = Staphylococcus epidermidis, 31 clinical isolates
[13] = Staphylococcus aureus, 109 clinical isolates
[14] = Streptococcus Group G, 18 clinical isolates
[15] = Table 2, amino acid 5 mM (none: 0 mM), MPO 38 U/ml, GO 33.3 U/ml, blood

MIC50 [1, 11]: 32 µg/mL (≈ 63.9 µM)
MIC90 [1, 11]: > 32 µg/mL
MIC range, upper end ([1]; clinical isolates): > 32 µg/mL
MIC50 [2, 12]: 0.12 µg/mL (≈ 0.24 µM)
MIC90 [2, 12]: > 32 µg/mL
MIC range, upper end ([2]; clinical isolates): > 32 µg/mL
MIC50 [3, 13]: 0.06 µg/mL (≈ 0.12 µM)
MIC90 [3, 13]: 0.12 µg/mL (≈ 0.24 µM)
MIC range, upper end ([3]; clinical isolates): > 32 µg/mL
MIC50 [4]: 0.12 µg/mL (≈ 0.24 µM)
MIC90 [4]: 0.25 µg/mL (≈ 0.499 µM)
MIC Range ([4]; range for all strains tested): 0.06 to 0.5 µg/mL
MIC50 [5]: 0.25 µg/mL (≈ 0.499 µM)
MIC90 [5]: 0.25 µg/mL (≈ 0.499 µM)
MIC Range ([5]; range for all strains tested): 0.06 to 0.5 µg/mL
MIC Range ([6]; Streptococcus Group C, 8 clinical isolates): 0.06 to 0.5 µg/mL
MIC Range ([6]; Streptococcus Group F, 2 clinical isolates): 0.25-0.25 μg/ml
MIC50 [6, 14]: 0.12 µg/mL (≈ 0.24 µM)
MIC90 [6, 14]: 0.12 µg/mL (≈ 0.24 µM)
MIC Range [6, 14]: 0.06 to 0.5 µg/mL
MIC50 [7]: 0.5 µg/mL (≈ 0.999 µM)
MIC90 [7]: 0.5 µg/mL (≈ 0.999 µM)
MIC Range ([7]; range for all strains tested): 0.12 to 2 µg/mL
SMILES: C/C(=C\C(=O)OCCCCCCCCC(=O)O)C[C@@H]1OC[C@H](C[C@@H]2O[C@H]2[C@@H](C)[C@H](C)O)[C@@H](O)[C@H]1O [mupirocin]
MIC by the modified method versus published quality control ranges ([3]; S. aureus ATCC 29213, inoculum prepared in Diluent solution): within previously published quality control ranges

SMILES: C[C@H](N)C(=O)O [L-Alanine]
CFU survivors [8]: 520000 CFU
log reduction [8]: 1.5 log
Log 10 (CFU + 1) Survivors ([9]; MPO 25 μg/mL, AA 5 mM, 30 min): 6.9
Log 10 (CFU + 1) Survivors ([9]; MPO 25 μg/mL, AA 5 mM, 60 min): 4.1
Log 10 (CFU + 1) Survivors ([9]; MPO 25 μg/mL, AA […], 30 min): 7.0
Log 10 (CFU + 1) Survivors ([9]; MPO 25 μg/mL, AA […], 60 min): 4.7
Log 10 (CFU + 1) Survivors ([9]; MPO 100 μg/mL, AA 5 mM, 30 min): 5.1
Log 10 (CFU + 1) Survivors ([9]; MPO 100 μg/mL, AA 5 mM, 60 min): 0.0
Log 10 (CFU + 1) Survivors ([9]; MPO 100 μg/mL, AA 20 mM, 30 min): 6.1
Log 10 (CFU + 1) Survivors ([9]; MPO 100 μg/mL, AA 20 mM, 60 min): 0.0
Average Viability CFU/ml 60 min [9, 15]: 7 CFU/ml
Log 10 (CFU + 1) Survivors 60 min [9, 15]: 0.9
Log Reduction 60 min [9, 15]: 6.5
Average Viability CFU/ml 50 min ([9]; Table 10): 9750000 CFU/ml
Log Reduction 50 min ([9]; Table 10): 0.4
Average Viability CFU/ml 50 min ([9]; Table 13): 2230000 CFU/ml
Log Reduction 50 min ([9]; Table 13): 1.0
Average Viability CFU/ml 50 min ([9]; Table 14): 2215000 CFU/ml
Log Reduction 50 min ([9]; Table 14): 1.1
log reduction at 5000 µM ([10]; Staphylococcus aureus, 1 h, read-out: Log Reduction 60 min): 0
Average Viability CFU/ml 60 min [10]: 24100000 CFU/ml
